Test results published in patent publication US11583507B2, “Direct AMPK activator compounds” (SOCIETE DES PRODUITS NESTLE S.A., priority 2018, dated 2023).

Tested on: AMPK substrate, acetyl-CoA carboxylase (ACC)
Test: pACC HTRF assay in U2OS Flp-In T-REx cells
Format: cell-based
Settings: 1 h, varying concentrations, dose-dependent
Procedure: U2OS Flp-In T-REx cells were seeded at 100 K in a 96-well plate and left overnight at 37 C in DMEM GlutaMAX (Thermo Fisher Scientific) supplemented with 10% (vol/vol) FBS and 100 U/ml penicillin G, and 100 μg/ml streptomycin. Cells were treated for 1 h with varying concentrations of Lusianthridin in media lacking FBS and then cells were lysed in 50 μl of Cisbio lysis buffer #1 supplemented with blocking solution as per the manufacturer's protocol (Cisbio). Cells were lysed for 30 mins at room temperature before 16 μl of lysate was incubated with 4 μl of the HTRF antibodies (1:40 dilution of the acceptor and donor (p)ACC antibodies, as per the manufacturers protocol). Lysates were incubated overnight with the antibodies before 665 nm/620 nm ratio was determined using a MolecularDevices i3 plate reader (with a HTRF cartridge add-on). For western blot analysis, SDS-sample buffer was added to the remainder of the lysate, denatured at 95 C and then subjected to western blot analysis with phospho-specific and total ACC antibodies (Cell Signalling). Bands were visualized by incubating with Li-Cor secondary antibody and scanned on a Li-Cor Odyssey machine.

For `COc1cc(O)c2c(c1)CCc1cc(O)ccc1-2` [Lusianthridin, 7-Methoxy-9,10-dihydrophenanthrene-2,5-diol], the “phosphorylation of the AMPK substrate ACC (pACC HTRF)” value was “increases”.
